Results on 27 compounds are retold here after PubChem BioAssay (NCI).

“And” between values parts separate entries of the source, which are not always exact repeats. Equal entries are not always repeated.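 Dose response: 5 concentrations. Exposure: 48 h. Format: 96-well plates. Endpoint: linear interpolation; highest concentration if not reached. Abbreviation: GI50, concentration required for 50% inhibition of growth. TGI: total growth inhibition.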

Test in all cases: NCI-60 cell line screen, 48 h
For test [1], the system named is SK-OV-3 ovarian.
Test [2] deals with A498 renal.
Test [3] deals with OVCAR-5 ovarian.
Test [4] concerns OVCAR-8 ovarian.
The test system of test [5] is BT-549 breast.
Test [6] relates to COLO 205 colon.
The subject of test [7] is MDA-MB-231 breast.
The subject of test [8] is CAKI-1 renal.
The test system of test [9] is 786-0 renal.
The test system of test [10] is NCI/ADR-RES ovarian.
The test system of test [11] is TK-10 renal.

Consider `NC(=Nc1ccc(O)cc1)S(=O)O`, for which the TGI in [1], in test [2], in test [3], in test [4], in test [5] and in test [6] was greater than 100 µM each time. The TGI in [7], in [8], in test [9], in [10] and in test [11] was greater than 100 µM in each case.

On to `Cc1cc(NS(=O)(=O)c2ccc(Nc3c4ccccc4nc4ccc(C(=O)Nc5ccc(S(N)(=O)=O)cc5)cc34)cc2)no1`, for which the TGI in test [1], in test [2], in test [3], in test [4], in [5] and in test [6] was greater than 100 µM in each case. For the same compound, the TGI in test [7], in test [8], in test [9], in [10] and in test [11] was greater than 100 µM each time.

Regarding `O=C1/C(=C/c2ccco2)N=C(c2ccccc2)N1c1cc2cc(Sc3ccccc3)ccc2[nH]1`, the TGI in [2], in [3], in [4], in test [5], in test [6] and in test [8] was greater than 25 µM throughout. Besides, the TGI in test [9] and in [10] was greater than 25 µM each time.

As to `COc1ccc2c(c1)CCC1=CC3(CCC12C)SCCS3` (stereo unspecified), the TGI in test [1], in [4], in test [5], in test [6], in test [7] and in [8] was greater than 10 µM in each case. For the same compound, the TGI in test [9], in test [10] and in test [11] was greater than 10 µM throughout.

As to `COc1ccc([C@@]23OC[C@@H]4[C@@H](OC[C@@H]42)c2cc(OC)c(OC)cc23)cc1OC`, the TGI in [1], in [2], in [3], in test [5], in [6] and in test [7] was greater than 100 µM each time. The TGI in test [8], in test [9], in test [10] and in test [11] was greater than 100 µM each time.

On to `Cc1ccc(/C=C/C(=O)c2cc(CN(C)C)c(O)c(CN(C)C)c2)cc1`, for which the TGI is 95.5 µM in test [2]; greater than 100 µM in [3]; 78.9 µM in test [4]; 35.4 µM in test [5]; 22.5 µM in test [6]; 27.2 µM in test [7]. The TGI is 50.3 µM in test [8], 73.9 µM in test [9], 79.1 µM in test [10] and greater than 100 µM in test [11].

On to `NC(=O)NC(=O)c1cccc(NC(=O)CBr)c1`, for which the TGI was 0.963 µM in test [1]; 0.532 µM in [2]; 1.89 µM in test [3]; 1.43 µM in test [5]; less than 0.01 µM in test [6]; 0.951 µM in test [7]. The TGI was 0.321 µM in test [8], less than 0.0333 µM in [9], 0.799 µM in test [10] and 0.281 µM in [11].

On to `O=C(O)CCCOc1cc(-c2ccccc2F)nc2cc3c(cc12)OCO3`, for which the TGI in test [1] is greater than 100 µM; in [3], greater than 100 µM; in test [4], greater than 100 µM; in test [5] it was greater than 100 µM; in [6], 27.4 µM; in [7], greater than 100 µM. In addition, the TGI in test [8], in [9], in [10] and in test [11] was greater than 100 µM each time.

As to `O=C(O)c1ccccc1/C=N/NC1=NCCCCN1`, the TGI in test [1], in [2], in test [3], in test [4], in test [5] and in test [6] was greater than 100 µM throughout. The TGI in test [7], in test [9], in test [10] and in test [11] was greater than 100 µM each time.

With `Cc1c(C)c2c(c(N)c1C#N)C(=O)N(CCN1CCNCC1)C2=O`, the TGI in test [2] is 72.3 µM; in test [3], 81.1 µM; in [4] it was greater than 100 µM; in test [5] it was greater than 100 µM; in test [6] it was 78.7 µM; in [7], greater than 100 µM. Besides, the TGI in test [8], in test [9], in [10] and in test [11] was greater than 100 µM each time.

For `COc1ccc(C2SC(C)C(=O)N2c2nc(-c3nc(-c4ccc(Cl)cc4)cs3)cs2)cc1` (stereo unspecified), the TGI in test [1], in test [3], in test [4], in test [5], in test [6] and in [7] was greater than 100 µM each time. Besides, the TGI in test [8], in test [9], in test [10] and in test [11] was greater than 100 µM in each case.

Take `Cc1ccc(S(=O)(=O)N2CCCC2C(=O)O[C@H]2CC[C@H]3CC=C[C@H]32)cc1` (stereo partly specified): the TGI was greater than 100 µM in test [1]; 89 µM in test [2]; greater than 100 µM in test [3]; greater than 100 µM in test [4]; greater than 100 µM in test [5]; greater than 100 µM in [7]. Besides, the TGI in test [8] is greater than 100 µM; in [9] it was greater than 31.6 µM; in test [10], 77.2 µM.

With `O=C(Nc1ccccc1F)c1cc2ccc(O)cc2oc1=Nc1cccc(C(F)(F)F)c1`, the TGI in test [1] is 35.2 µM; in test [2] it was 38.3 µM; in test [3], greater than 100 µM; in [4], 5.27 µM; in [5], 8.42 µM; in [6] it was 33 µM. The TGI was found to be 19.7 µM in test [8], 17.8 µM in test [9] and 9.93 µM in test [10].

With `CCCCC(=O)Oc1ccc2c(C)cc(=O)oc2c1`, the TGI in test [2], in test [3], in test [4], in test [5], in test [6] and in test [7] was greater than 100 µM in each case. For the same compound, the TGI in test [8], in [9], in test [10] and in [11] was greater than 100 µM each time.

Regarding `CC#CCCN(CC#N)Cc1ccccc1`, the TGI was greater than 100 µM in test [1]; 37.2 µM in test [2]; greater than 100 µM in test [3]; greater than 100 µM in [4]; greater than 100 µM in test [6]; greater than 100 µM in test [7]. The TGI in test [8], in test [9], in test [10] and in test [11] was greater than 100 µM in each case.

For `C/C(=C\c1ccc(Cl)c(Cl)c1)[N+](=O)[O-]`, the GI50 in test [1] was 16.3 µM; in test [2], 8.21 µM; in test [3] it was 2.25 µM; in test [4], 1.62 µM; in [5], 7.55 µM; in test [6], 1.78 µM. Moreover, the GI50 in [8] was 1.1 µM; in [11], 1.67 µM. Moreover, the TGI is 29.8 µM in test [1]; 21.5 µM and 14.8 µM in test [2]; 5.09 µM and 4.62 µM in test [3]; 3.4 µM in test [4]; 20.1 µM in test [5]; 3.27 µM in test [6]. The TGI was 3.94 µM in test [7]; 2.51 µM in [8]; 3.18 µM in test [9]; 3.19 µM and 3.6 µM in test [11].

Regarding `COC(=O)c1ccccc1/C=C1\Cc2cc(C)c(C)cc2C1=O`, the TGI in test [2], in [3], in test [4], in [5], in test [6] and in test [8] was greater than 100 µM in each case. For the same compound, the TGI was greater than 100 µM in test [9], greater than 100 µM in [10] and 86.6 µM in test [11].

As to `O=C1NC(N2CCCC(CO)C2)=N/C1=C\c1ccc(Cl)cc1` (stereo unspecified), the TGI in test [1], in test [3], in [4], in test [5], in [6] and in test [7] was greater than 100 µM each time. For the same compound, the TGI in test [8], in test [9], in test [10] and in test [11] was greater than 100 µM throughout.

Turning to `O=C(c1ccc(Br)cc1)n1c2ccc(Br)cc2c2nc3ccccc3nc21`, the TGI in [3], in test [4], in [5], in test [6], in test [8] and in [9] was greater than 100 µM throughout. The TGI in test [10] and in [11] was greater than 100 µM in each case.

Regarding `NNc1[nH]c(=S)[nH]c1C(N)=O`, the TGI in [1], in test [2], in test [3], in [4], in test [5] and in test [6] was greater than 100 µM throughout. Besides, the TGI in [7], in test [9], in test [10] and in test [11] was greater than 100 µM in each case.

Take `CCS(=O)(=O)CCn1cnc2c1c(=O)n(C)c(=O)n2C`: the TGI in test [2], in test [3], in test [4], in [5], in test [6] and in [7] was greater than 100 µM in each case. The TGI in [8], in test [9], in test [10] and in [11] was greater than 100 µM in each case.

As to `C=C(Cl)C(=C)CCC(Cl)C(C)C` (stereo unspecified), the TGI in [1], in test [2], in test [3], in test [5], in test [6] and in test [7] was greater than 100 µM each time. In addition, the TGI in [8], in test [9], in [10] and in test [11] was greater than 100 µM in each case.

On to `O=C=NCCCCCCN1C(=O)N2C(c3ccccc3)N(CCCCCCN=C=O)C(=O)N2C1c1ccccc1` (stereo unspecified), for which the TGI in [2], in test [3], in test [4], in [5], in test [6] and in test [7] was greater than 100 µM each time. In addition, the TGI in [8], in test [9], in [10] and in test [11] was greater than 100 µM throughout.

In the case of `O=C(CCN1CCOCC1)Nc1ccc2sc3ccccc3c(=O)c2n1`, the TGI in [1], in test [3], in test [4], in test [5], in test [6] and in test [7] was greater than 100 µM throughout. Besides, the TGI is 63.8 µM in [8], greater than 100 µM in test [9], greater than 100 µM in test [10] and greater than 100 µM in [11].

Regarding `O=C(O)c1oc(C(=O)O)c(C(=O)O)c1C(=O)O`, the TGI in [2], in test [3], in test [4], in [5], in test [7] and in test [8] was greater than 100 µM in each case. For the same compound, the TGI in test [9], in test [10] and in [11] was greater than 100 µM throughout.

Take `CCc1c(Cc2cc(C)cc(C)c2)n2c(nc1=O)SCC2CBr` (stereo unspecified): the TGI is greater than 50 µM in [2]; greater than 50 µM in [3]; 40.4 µM in [4]; greater than 50 µM in test [5]; greater than 50 µM in [6]; greater than 50 µM in test [7]. Also, the TGI in test [8], in [9], in [10] and in test [11] was greater than 50 µM throughout.

Turning to `COC(=O)[C@@H]1C[C@@H]2c3ccccc3N(S(=O)(=O)c3ccccc3)[C@@H]2N1C(=O)OC`, the TGI in test [1], in [3], in test [4], in test [5], in test [6] and in [7] was greater than 100 µM in each case. For the same compound, the TGI in test [8], in test [9], in [10] and in test [11] was greater than 100 µM in each case.
